Reference: publication PMC9154810, “Selective inhibition of carbonic anhydrase IX by sulphonylated 1,2,3-triazole incorporated benzenesulphonamides capable of inducing apoptosis” (Journal of Enzyme Inhibition and Medicinal Chemistry, 2022)
Where two headings read alike, the source gives them in different places.

Experiments:
[1] = target: hCA IV (Homo sapiens, UniProt P22748); assay: stopped-flow CO2 hydrase assay, hCA IV
Description: (§2) An Sx.18Mv-R Applied Photophysics (Oxford, UK) stopped-flow instrument was used to assay the catalytic activity of various CA isozymes for CO2 hydration reaction.[21]

[2] = target: hCA I (Homo sapiens, UniProt P00915); assay: stopped-flow CO2 hydrase assay, hCA I
Sequence of hCA I (P00915 whole entry): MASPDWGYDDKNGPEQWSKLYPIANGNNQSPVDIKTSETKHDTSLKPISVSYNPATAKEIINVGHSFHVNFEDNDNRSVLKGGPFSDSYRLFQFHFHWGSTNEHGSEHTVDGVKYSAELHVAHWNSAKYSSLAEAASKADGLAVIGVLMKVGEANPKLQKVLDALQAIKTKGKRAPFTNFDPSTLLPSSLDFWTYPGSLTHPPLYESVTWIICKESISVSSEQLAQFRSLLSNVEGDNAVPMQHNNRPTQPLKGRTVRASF
Description: as §2

[3] = target: hCA IX (Homo sapiens, UniProt Q16790); assay: stopped-flow CO2 hydrase assay, hCA IX; details: for Selectivity index I/IX: ratio KI hCA I / KI hCA IX; for Selectivity index II/IX: ratio KI hCA II / KI hCA IX
Description: as §2

[4] = target: hCA II (Homo sapiens, UniProt P00918); assay: stopped-flow CO2 hydrase assay, hCA II
Description: as §2

[5] = MTT assay, cell viability; assay type: cell-based; details: goat (Capra hircus), primary goat testicular cells, mean ± SEM, read-out: percent cell viability
Description: (§1) Goat (Capra hircus) testicular tissues were procured from slaughterhouses of Chandigarh (30°43′ N, 76°12′ E) and around Kurukshetra (29°6′ N, 76°50′ E) in 0.9% normal saline at 4 °C. The testicular cells/tissues were cultured in vitro in media-TCM199 and exposed to 10 µM concentration of given compounds for 6 h in a CO2 incubator with 5% CO2 and 95% humidity at 38 °C temperature.[22]^,[23]
Testicular cells were cultured in 96-well plates. Wells for blank control were without any cells and contained MTT [3-(4,5-dimethylthiazol-2-yl)-2,5-diphenyl-tetrazolium-bromide)], culture medium, and DMSO. The remaining wells were seeded with testicular cells, which were treated with given compounds at 10 µM concentration for 6 h. Post treatment, 10 µL of MTT stock solution was added to each well, and the reaction mixture was incubated for 2 h. After that 200 µL of DMSO was added in each well, followed by shaking for 10 min. Absorbance of reaction mixture was taken at 470 nm.

[6] = tested on: testicular cells; assay: EB/AO differential staining, apoptosis detection and quantification; assay type: cell-based, Goat (Capra hircus); details: 10 µM, 6 h, mean ± SEM; control 7.33 ± 0.33
Description: as §1
Ethidium bromide and acridine orange (EB/AO) staining was used to determine the cyto-genotoxic nature of given compounds in testicular cells.[25] Briefly, the testicular cell suspension prepared from the treated testicular tissue was mixed with equal volume of EB/AO differential stain on a glass slide and covered with a coverslip. Observation and quantification of apoptotic cells were done with fluorescence microscope (Olympus, Japan) using filters of 500–525 nm. Cells appearing bright green were marked as normal healthy cells, while cells displaying orange-red fluorescence were marked as apoptotic.

[7] = mean from three assays, stopped-flow technique, errors ± 5–10%

Sequence of hCA IV (P22748 19-312): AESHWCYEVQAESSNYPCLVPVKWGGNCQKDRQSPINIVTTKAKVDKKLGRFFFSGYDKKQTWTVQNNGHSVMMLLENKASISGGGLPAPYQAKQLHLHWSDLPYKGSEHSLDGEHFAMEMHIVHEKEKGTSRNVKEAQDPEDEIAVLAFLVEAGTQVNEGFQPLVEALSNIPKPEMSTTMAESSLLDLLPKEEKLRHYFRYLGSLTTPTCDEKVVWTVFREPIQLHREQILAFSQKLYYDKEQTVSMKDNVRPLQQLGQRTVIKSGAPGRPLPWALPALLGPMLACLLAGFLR

Ki [1] | Ki [2, 7] | Ki [3] | Selectivity index I/IX [3] | Selectivity index II/IX [3] | Ki [4] | melting point | Ki [2] | selectivity for hCA IX over hCA I [3] | Structure (SMILES) | viability at 6 h, 10 µM [5] | percent apoptosis [6]
91.8 nM | 696 nM | 16.4 nM | 42.42 | 3.56 | 58.4 nM | 123 to 125 °C |  |  | NS(=O)(=O)c1cccc(-n2nnc(S(=O)(=O)c3ccccc3)c2-c2ccc(Cl)cc2)c1 [Compound 10d, 3-(5-(4-chlorophenyl)-4-(phenylsulphonyl)-1H-1,2,3-triazol-1-yl)benzenesulphonamide] | 32 ± 6.92% | 35.00 ± 1.15%
6050 nM | 8030 nM | 22.8 nM | 352.32 | 28.45 | 649 nM | 231 to 233 °C | 8030 nM | more than 100 fold | COc1ccc(-c2c(S(=O)(=O)c3ccccc3)nnn2-c2cccc(S(N)(=O)=O)c2)cc1Br [Compound 10h, 3-(5-(3-bromo-4-methoxyphenyl)-4-(phenylsulphonyl)-1H-1,2,3-triazol-1-yl)benzenesulphonamide] | 46.7 ± 4.8% | 29.33 ± 1.45%
